Values of other authors in paper PMC9010276 (Clinical and Translational Science, 2021).
Read-outs that look alike come from different tables or passages of the source.

Columns and labels:
[1] = studies with registered drugs

Nc1[nH]ncc1-c1cc(Cl)ccc1Oc1cc(F)c(S(=O)(=O)Nc2cscn2)cc1Cl [PF‐05089771]
Skin rash after administration (after multiple dosing at higher dose levels): mild skin rash

COC[C@@H](NC(C)=O)C(=O)NCc1ccccc1 [lacosamide]
Analgesic effects on experimental pain tests [1]: limited and variable analgesic effects

CCN(CC)CC(=O)Nc1c(C)cccc1C [lidocaine]
Analgesic effects on experimental pain tests [1]: limited and variable analgesic effects

Cc1cccc(C)c1OCC(C)N (stereo not drawn) [mexiletine]
Analgesic effects on experimental pain tests [1]: limited and variable analgesic effects | Skin rash after administration (nonselective Nav inhibitors): mild skin rash

O=C1NC(=O)C(c2ccccc2)(c2ccccc2)N1 [phenytoin]
Skin rash after administration (nonselective Nav inhibitors): mild skin rash
